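Interpolation was linear, between the two tested concentrations surrounding the appropriate level; five concentrations were tested over 48 hours in 96-well plates. GI50: concentration for 50% inhibition of growth.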 Active and inactive are the calls of the source. Cut-off read from the data, not from the text of the source: active = GI50 up to about 1.1 µM and inactive = higher. Where only a bound is given, the exact number is not on record here.

The values that follow come from ChEMBL document CHEMBL1201862, “PubChem BioAssay data set” (2004).

Some test systems named below: SK-MEL-2; KM12; UO-31; LOX IMVI; U-251; BT-549; HCT-116; ACHN; CCRF-CEM; HOP-92; MDA-N; OVCAR-5; A549; HCT-15; SW-620; SF-295; NCI-H460; SF-539; HL-60.
Common to all, as to assay: growth of human tumour cells (NCI), 48 h

With `O=c1oc2ccccc2c(-c2ccc(O)cc2)c1Oc1ccc(Cl)cc1`, the GI50 was 17.9 µM (inactive) with SK-MEL-2; 26.5 µM (inactive) with KM12; 18.1 µM (inactive) in the experiment on UO-31; 24.7 µM (inactive) with LOX IMVI; 22.3 µM (inactive) in the experiment with U-251; 23.2 µM (inactive) in the experiment with BT-549. Further, the GI50 in the experiment with HCT-116 is 15.8 µM (inactive); with ACHN it was 25.8 µM (inactive); with CCRF-CEM, 21.4 µM (inactive); in the experiment with HOP-92, 19.8 µM (inactive); in the experiment on MDA-N it was 19.5 µM (inactive); in the experiment on OVCAR-5, 31.8 µM (inactive). Also, the GI50 was 19.3 µM (inactive) in the experiment with A549; 30.1 µM in the experiment with HCT-15; 30.5 µM (inactive) with SW-620; 17 µM (inactive) in the experiment with SF-295; 20.4 µM (inactive) with NCI-H460; 30.4 µM (inactive) in the experiment with SF-539.
Consider `COC(OC)C(O)C1OC=CC1n1cnc2c(N)ncnc21` (stereo not given), for which the GI50 with SK-MEL-2 was > 100 µM (inactive); with KM12, > 100 µM (inactive); with UO-31 it was 0.792 µM (active); with LOX IMVI it was > 100 µM (inactive); with U-251, > 100 µM (inactive); in the experiment on BT-549 it was > 100 µM (inactive). In addition, the GI50 was > 100 µM (inactive) in the experiment with HCT-116; > 100 µM (inactive) with ACHN; > 100 µM (inactive) with CCRF-CEM; > 100 µM (inactive) in the experiment with HOP-92; > 100 µM (inactive) with MDA-N; above 100 µM in the experiment on HCT-15. For the same compound, the GI50 in the experiment on SW-620, in the experiment on SF-295, in the experiment with NCI-H460 and in the experiment with SF-539 was > 100 µM (inactive) in each case.
With `C/C(=C(/C)c1ccc(O)cc1)c1ccc(O)cc1` [DIMETHYLSTILBESTROL], the GI50 in the experiment on SK-MEL-2 is 10 µM (inactive); in the experiment on KM12, 62.7 µM (inactive); in the experiment with UO-31, 70.8 µM (inactive); in the experiment with U-251 it was 67.3 µM (inactive); in the experiment with BT-549, 12.6 µM (inactive); with HCT-116, 83.2 µM (inactive). In addition, the GI50 was 41.4 µM (inactive) in the experiment with HL-60; 28.8 µM (inactive) in the experiment on ACHN; 42.3 µM (inactive) with CCRF-CEM; 27.4 µM (inactive) in the experiment with HOP-92; 31.8 µM (inactive) in the experiment on MDA-N; > 100 µM (inactive) in the experiment with OVCAR-5. Further, the GI50 in the experiment with A549 was 71.3 µM (inactive); in the experiment with HCT-15 it was 61.1 µM; in the experiment with SW-620, > 100 µM (inactive); with NCI-H460, 49.8 µM (inactive); with SF-539, 32.3 µM (inactive).
In the case of `C#CCCOC(=O)c1ccccc1OC(C)=O`, the GI50 in the experiment on SK-MEL-2, with KM12, in the experiment with UO-31, in the experiment with LOX IMVI, in the experiment with U-251 and in the experiment on BT-549 was > 100 µM (inactive) each time. The GI50 with HCT-116, in the experiment on ACHN, with CCRF-CEM, in the experiment on HOP-92, in the experiment with MDA-N and in the experiment with OVCAR-5 was > 100 µM (inactive) each time. In addition, the GI50 in the experiment on HCT-15 was above 100 µM; in the experiment with SW-620 it was > 100 µM (inactive); with SF-295 it was > 100 µM (inactive); in the experiment on NCI-H460, > 100 µM (inactive); in the experiment with SF-539, > 100 µM (inactive).
`O=C(O)c1nc2ccc(C(F)(F)F)cc2nc1NCc1ccc(Cl)c(Cl)c1`: the GI50 in the experiment on SK-MEL-2 was 12.5 µM (inactive); in the experiment on KM12, 16.3 µM (inactive); in the experiment on UO-31, 13.4 µM (inactive); in the experiment on LOX IMVI it was 15.1 µM (inactive); in the experiment on U-251, 13.8 µM (inactive); with BT-549, 17.5 µM (inactive). The GI50 is 16.2 µM (inactive) in the experiment with HCT-116; 15.4 µM (inactive) in the experiment on ACHN; 23.4 µM (inactive) in the experiment on CCRF-CEM; 15.7 µM (inactive) in the experiment on HOP-92; 19.6 µM (inactive) in the experiment with MDA-N; 13.5 µM (inactive) in the experiment with OVCAR-5. The GI50 is 16.1 µM (inactive) in the experiment with A549; 18 µM with HCT-15; 19.4 µM (inactive) with SW-620; 17.4 µM (inactive) in the experiment on SF-295; 16 µM (inactive) in the experiment with NCI-H460; 19.5 µM (inactive) in the experiment with SF-539.
For `c1ccc(NNC2=NCCN2)cc1`, the GI50 with SK-MEL-2, with KM12, in the experiment with UO-31, with LOX IMVI, in the experiment with U-251 and in the experiment on BT-549 was > 100 µM (inactive) throughout. Further, the GI50 in the experiment on HCT-116, in the experiment with HL-60, with ACHN, with CCRF-CEM, in the experiment on MDA-N and with OVCAR-5 was > 100 µM (inactive) in each case. Also, the GI50 in the experiment on A549 is > 100 µM (inactive); in the experiment on HCT-15 it was above 100 µM; with SW-620 it was > 100 µM (inactive); in the experiment with SF-295, 2.75 µM (inactive); in the experiment with NCI-H460, > 100 µM (inactive); in the experiment on SF-539, > 100 µM (inactive).
In the case of `Cc1n[nH]c(=O)n1/N=C/c1ccc(Cl)cc1`, the GI50 in the experiment on KM12 was > 100 µM (inactive); with UO-31, 61.1 µM (inactive); in the experiment on BT-549, 23.1 µM (inactive); in the experiment on HCT-116 it was 64.4 µM (inactive); in the experiment with ACHN, > 100 µM (inactive); with CCRF-CEM it was 31.1 µM (inactive). In addition, the GI50 is 32.9 µM (inactive) in the experiment on HOP-92; > 100 µM (inactive) in the experiment with MDA-N; > 100 µM (inactive) in the experiment with OVCAR-5; 61.2 µM (inactive) with A549; above 100 µM with HCT-15; 68.7 µM (inactive) in the experiment with SW-620. The results for the GI50 in the experiment on SF-295, in the experiment with NCI-H460 and in the experiment with SF-539 were 46 µM (inactive), 59.7 µM (inactive) and 78.2 µM (inactive), respectively.
In the case of `CCOP(=O)(OCC)C(C)(C)OC(=O)NC(F)(F)F`, the GI50 with SK-MEL-2, in the experiment with KM12, in the experiment with UO-31, with LOX IMVI, in the experiment with U-251 and in the experiment on BT-549 was > 100 µM (inactive) each time. In addition, the GI50 in the experiment on HCT-116, in the experiment on HL-60, in the experiment with ACHN, in the experiment on CCRF-CEM, with MDA-N and in the experiment with OVCAR-5 was > 100 µM (inactive) in each case. For the same compound, the GI50 was > 100 µM (inactive) with A549; above 100 µM in the experiment on HCT-15; > 100 µM (inactive) in the experiment on SW-620; > 100 µM (inactive) with SF-295; > 100 µM (inactive) with NCI-H460; > 100 µM (inactive) in the experiment with SF-539.
In the case of `O=C(CCCn1ccnc1[N+](=O)[O-])NCCn1ccnc1[N+](=O)[O-]`, the GI50 in the experiment on SK-MEL-2, with KM12, in the experiment on UO-31, in the experiment with LOX IMVI, in the experiment with U-251 and with BT-549 was > 100 µM (inactive) throughout. Further, the GI50 with HCT-116, in the experiment with HL-60, in the experiment with ACHN, in the experiment with CCRF-CEM, in the experiment with MDA-N and with OVCAR-5 was > 100 µM (inactive) throughout. For the same compound, the GI50 in the experiment on A549 is > 100 µM (inactive); with HCT-15 it was above 100 µM; in the experiment on SW-620, > 100 µM (inactive); in the experiment on SF-295, > 100 µM (inactive); in the experiment on NCI-H460 it was > 100 µM (inactive); in the experiment on SF-539, > 100 µM (inactive).
